Activity calls are given as the source filed them. The rule behind the calls is not given here.
Assays:
[1] = molecular target: T1, L-lysine-epsilon aminotransferase (Mycobacterium tuberculosis) (UniProt P9WQ77); test: Inhibition of Mycobacterium tuberculosis lysine-epsilon aminotransferase at 600 uM
T1 sequence (whole entry): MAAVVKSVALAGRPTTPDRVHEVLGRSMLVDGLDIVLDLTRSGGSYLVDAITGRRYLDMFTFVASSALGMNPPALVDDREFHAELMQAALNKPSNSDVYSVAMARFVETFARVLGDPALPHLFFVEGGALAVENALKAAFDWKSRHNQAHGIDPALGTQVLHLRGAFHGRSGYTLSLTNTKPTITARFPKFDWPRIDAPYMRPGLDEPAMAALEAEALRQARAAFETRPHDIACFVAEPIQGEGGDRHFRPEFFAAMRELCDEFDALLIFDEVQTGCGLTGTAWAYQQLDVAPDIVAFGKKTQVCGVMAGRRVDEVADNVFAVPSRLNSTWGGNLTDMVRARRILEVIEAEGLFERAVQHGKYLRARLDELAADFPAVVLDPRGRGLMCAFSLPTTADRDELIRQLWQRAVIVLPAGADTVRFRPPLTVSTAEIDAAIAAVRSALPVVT

[2] = molecular target: T1, L-lysine-epsilon aminotransferase (Mycobacterium tuberculosis); test: Inhibition of Mycobacterium tuberculosis lysine-epsilon aminotransferase at 400 uM

## COc1ccc(CC(=O)NCC2c3[nH]c4ccccc4c3CC3C(=O)N(CCc4ccc(OC)c(OC)c4)C(=O)N32)cc1 (configuration not stated)
[1]
  inhibition: 60%

## CN(CC(O)c1ccccc1)CC1CCCCN1C (configuration not stated)
[2]
  inhibition: Active

— ChEMBL document CHEMBL3045070, “Identification of in vitro inhibitors of Mycobacterium tuberculosis Lysine -aminotransferase by pharmacophore mapping and three-dimensional flexible searches” (Med Chem Res, 2008)
